# Experimental data published in US12673925B2, “Compounds and compositions for eye treatments” (Avedro, Inc., priority 2018, dated 2026).
# Tested on: cornea of porcine whole globes
# Assay: Porcine eye corneal flattening assay
# Conditions: de-epithelialized porcine cornea; 0.11% w/v in saline; UVA 4 mm circle, 365 nm, 30 mW/cm^2, pulsed, 16.2 min, 15 J, 90%+ oxygen, 37.0° C.
# Method: Protocol 1 (For Examples 8, 9, 10, 17, 18, 19, 20, 28, and 29): Porcine whole globes in saline at 4° C. were warmed to room temperature. […] The eye holders were then positioned inside an enclosed chamber that allows for the control of atmosphere, temperature and humidity (typically a water bath at 37.0° C.). IOP is maintained at a constant pressure by the insertion of a blood bank buffered saline line from an IV bag at a standard height inserted into each eye via a syringe needle. 5% Dextran T500 in blood bank buffered saline is dropped onto the surface of the cornea of each eye every 90 sec for 2 hours to allow the eyes to stabilize. […] The test eye is then orientated in a vertical position and the pre-treatment surface keratometry of the cornea measured using a Pentacam® HR device fine cornea 100 scan. […] After a further 1.5 hours during which the 5% dextran drops are resumed the eye is orientated back to the vertical position and the post-treatment surface keratometry of the cornea measured using a Pentacam® HR device fine cornea 100 scan as before. The difference map between the pre and post treatment corneal images is obtained and the overall change in keratometry (Km) of the central 3 mm zone recorded as a change in diopters. […]
smiles,measurement,value
Cc1cc2nc(-c3nnnn3C)c(=O)n(C[C@H](O)[C@H](O)[C@H](O)CO)c2cc1C [Compound 40],Refractive Change (D),−2.5 D
